The values that follow come from article PMC13294191, “Oral peptide drug delivery: design of SEDDS providing a protective effect against intestinal membrane-bound enzymes” (Drug Delivery and Translational Research, 2025).

Each structure is given as a SMILES string. Where a SMILES comes first, the peptide text is derived from it.

Series [1] addresses T1, Aminopeptidase N from porcine kidney (Sus scrofa, UniProt P15145).
T1 construct: purchased Merck KGaA (Darmstadt, Germany); host or cells: porcine kidney (tissue-derived enzyme suspension)
T1 sequence (P15145 1-963): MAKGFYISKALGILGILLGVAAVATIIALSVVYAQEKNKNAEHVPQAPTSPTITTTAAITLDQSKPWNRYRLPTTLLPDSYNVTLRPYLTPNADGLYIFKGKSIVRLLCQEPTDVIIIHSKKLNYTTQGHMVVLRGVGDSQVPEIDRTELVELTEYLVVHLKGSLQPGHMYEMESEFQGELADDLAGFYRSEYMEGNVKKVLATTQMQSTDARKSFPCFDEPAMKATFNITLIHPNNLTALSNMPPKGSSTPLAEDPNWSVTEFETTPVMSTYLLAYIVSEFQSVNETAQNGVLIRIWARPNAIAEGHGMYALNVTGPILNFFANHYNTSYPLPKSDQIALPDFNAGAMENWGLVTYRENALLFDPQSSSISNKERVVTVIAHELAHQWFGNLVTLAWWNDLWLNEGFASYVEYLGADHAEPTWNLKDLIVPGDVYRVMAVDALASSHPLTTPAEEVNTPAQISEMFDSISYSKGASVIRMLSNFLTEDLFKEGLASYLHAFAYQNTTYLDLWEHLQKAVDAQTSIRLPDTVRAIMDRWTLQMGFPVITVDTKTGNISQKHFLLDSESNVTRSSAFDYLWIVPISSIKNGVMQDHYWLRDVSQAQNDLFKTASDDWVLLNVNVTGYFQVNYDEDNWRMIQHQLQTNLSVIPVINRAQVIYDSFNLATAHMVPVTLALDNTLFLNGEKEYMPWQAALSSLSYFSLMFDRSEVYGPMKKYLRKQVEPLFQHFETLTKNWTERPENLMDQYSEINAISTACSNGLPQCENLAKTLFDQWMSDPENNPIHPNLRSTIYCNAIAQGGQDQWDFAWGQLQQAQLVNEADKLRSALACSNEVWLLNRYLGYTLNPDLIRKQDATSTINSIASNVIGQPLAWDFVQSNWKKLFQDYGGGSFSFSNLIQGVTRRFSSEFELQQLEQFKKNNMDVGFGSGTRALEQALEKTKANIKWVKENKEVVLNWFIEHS
Nature of the series: Inhibitory activity of SEDDS and excipients towards isolated aminopeptidase N. In kind it is biochemical. The conditions noted are these: excipient (caprylic acid 20 µL or citronellol 10 µL) solubilized with 20 µL PEG-35 castor oil in HBS pH 6.5, 500 µL; 500 µL of 41.6 mU/mL enzyme; 5 mM L-Leucine-4-nitroanilide; 1 h, 37 °C, 400 rpm; n ≥ 3.
Protocol: Furthermore, a possible inhibitory effect of SEDDS and excipients on aminopeptidase N activity was investigated using the isolated enzyme, following a method previously described with slight modifications [28]. Surfactant solutions were prepared in 20 mM HBS pH 6.5 in the same concentration as they are present in SEDDS. Either 5% (v/v) SEDDS or surfactant solution were mixed in 500 µL together with further 500 µL of a 41.6 mU/mL enzyme solution in 20 mM HBS pH 6.5. L-Leucine- 4-nitroanilide was added prior to SEDDS and surfactant solution in a final concentration of 5 mM.
A 5 mM substrate solution served as the positive control, representing 100% enzyme activity. The samples were incubated on a thermomixer for 1 h at 37 °C and 400 rpm agitation. To stop the enzymatic reaction, 1 mL of methanol containing 2% (v/v) TFA were added to each sample. After centrifugation at 12,500 rpm, the concentration of 4-nitroaniline in the supernatant was quantified. The inhibitory activity was calculated using the following Eq. (5):5 Inhibitoryactivity[%]=100-Abssample/Abspositivecontrol×100

The conditions of series [2]: pH 6.5.
Protocol: The rat intestine was carefully cleaned to remove its intestinal contents and then cut into 1.5 cm sections. These sections were fixed in Ussing chambers with a surface area of 0.64 cm^2 and 1 mL of 20 mM HBS pH 6.5 was added to each acceptor chamber, while the donor chambers were filled with 1 mL of 5% (v/v) SEDDS in 20 mM HBS pH 6.5, facing the luminal side of the intestine.
The Ussing chambers were incubated in a water bath at 37 °C, and every 1 h, 100 µL aliquots were withdrawn from the acceptor chambers over a 4 h period. Withdrawn samples were replaced with pre-warmed HBS to maintain sink conditions. The concentration of permeated tuftsin in the collected aliquots was determined via HPLC and the apparent permeability coefficient [30]was subsequently calculated using the following Eq. (6):6 Papp[cms^-1]=Q[μg]/Acm^2cμgmL^-1t[s] where Papp is the apparent permeability coefficient, Q is the total amount of test substance permeated through the mucosa, A is the diffusion area of the Ussing chamber system, c is the initial concentration of tuftsin in the donor compartment and t is the total time of experiment.
In series [3] the target is T2, membrane-bound aminopeptidase N on rat intestinal mucosa (Rattus norvegicus, UniProt P15684).
T2 sequence (P15684 1-965): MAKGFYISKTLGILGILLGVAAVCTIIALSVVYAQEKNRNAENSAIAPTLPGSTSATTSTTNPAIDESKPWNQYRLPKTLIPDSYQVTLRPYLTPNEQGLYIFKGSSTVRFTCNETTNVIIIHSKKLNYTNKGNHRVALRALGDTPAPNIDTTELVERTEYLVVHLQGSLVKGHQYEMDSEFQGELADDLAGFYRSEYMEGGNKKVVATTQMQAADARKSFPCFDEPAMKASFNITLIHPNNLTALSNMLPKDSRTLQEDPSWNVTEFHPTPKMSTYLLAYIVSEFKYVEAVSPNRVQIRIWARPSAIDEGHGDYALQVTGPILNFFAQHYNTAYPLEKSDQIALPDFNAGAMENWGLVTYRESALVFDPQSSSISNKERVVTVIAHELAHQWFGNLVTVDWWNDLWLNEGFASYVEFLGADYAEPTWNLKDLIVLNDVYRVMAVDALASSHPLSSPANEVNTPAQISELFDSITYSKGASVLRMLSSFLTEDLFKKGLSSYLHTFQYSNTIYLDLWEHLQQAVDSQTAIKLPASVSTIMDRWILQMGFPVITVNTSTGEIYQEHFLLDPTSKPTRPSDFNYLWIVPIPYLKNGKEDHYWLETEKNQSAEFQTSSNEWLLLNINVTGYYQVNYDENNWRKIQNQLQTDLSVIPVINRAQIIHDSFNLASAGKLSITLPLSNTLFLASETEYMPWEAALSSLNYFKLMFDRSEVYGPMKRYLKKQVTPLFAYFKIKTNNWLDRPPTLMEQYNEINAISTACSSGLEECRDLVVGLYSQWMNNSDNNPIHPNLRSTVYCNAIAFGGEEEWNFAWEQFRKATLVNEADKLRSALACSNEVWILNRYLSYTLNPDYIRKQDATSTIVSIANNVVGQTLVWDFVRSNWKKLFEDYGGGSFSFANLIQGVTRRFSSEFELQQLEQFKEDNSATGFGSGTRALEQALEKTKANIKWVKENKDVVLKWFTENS
Protocol: Rat intestine was obtained freshly from male Sprague–Dawley rats (200–300 g) supplied by Janvier Labs (Saint Berthevin, France). The middle section of the small intestine was longitudinally dissected and thoroughly washed with HBS pH 6.5 to remove intestinal contents. The intestine was stored at − 20 °C in HBS until further use.
After thawing the small intestine was cut into 1 × 1 cm pieces that were placed in tubes containing 500 µL of HBS. SEDDS with dissolved HIP were emulsified in a concentration of 10% (v/v) in HBS. 500 µL of nanoemulsions were added to each tube to obtain a final concentration of 5% (v/v) SEDDS. Thereafter, samples were incubated on a thermomixer at 37 °C with continuous agitation at 400 rpm. Over a 4 h time period, 100 µL aliquots were withdrawn from each sample at predefined time intervals. To terminate the enzymatic reaction, an equal volume of methanol containing 2% (v/v) TFA was added to each aliquot. Subsequently, the concentration of tuftsin in the supernatant was quantified using HPLC.

With `CC(C)=CCCC(C)CCO` (stereo not shown) [citronellol], the “Inhibitory activity of single SEDDS-3 excipients towards aminopeptidase N” value in series [1] turned out to be 18%.
With `C[C@@H](O)[C@H](N)C(=O)N[C@@H](CCCCN)C(=O)N1CCC[C@H]1C(=O)N[C@@H](CCCNC(=N)N)C(=O)O` [tuftsin, Tuftsin] (H-TKPR-OH), in series [2], the “Apparent permeability coefficient (Papp) of tuftsin” value was 0.8 × 10^–5 cm/s and the “Tuftsin permeated after 4 h of cumulative permeation (% of initial tuftsin)” value is 7%. Besides, the “Time to entire degradation of the unformulated peptide (abstract)” value in series [3] is given as ≤ 20 min.
